Test system: hypertriglyceridemic patients with cardiovascular disease or at high risk for cardiovascular disease
Assay: REDUCE-IT: subgroup analyses of the primary and key secondary endpoints
Format: in vivo, human
Settings: for Primary endpoint, patients with event (%) / Time to primary endpoint, HR (95% CI) AMR101/Placebo / Primary endpoint, patients with event n/N: ITT
Method: Exploratory Subgroup Analyses: Analyses of the effects that patients off study drug and withdrawn from study have on the primary endpoint were performed. Subgroup analyses of the primary and key secondary endpoints were performed as described for the primary endpoint. For each subgroup, Kaplan-Meier estimates, the log-rank test stratified by stratification factors used at randomization (except where the subgroup was a stratification factor), and HRs and CIs from the Cox proportional hazards model as specified for the primary efficacy endpoint, were summarized by treatment group. Demographic, disease, treatment, and baseline lipid and lipoproteins parameters were explored.
Demographic parameters included: Gender; age at baseline (<65 years and ≥65 years); race (white and nonwhite, or any other subset with at least 10% of the total number of patients); geographical region (Westernized, Eastern European, and Asia Pacific countries); and baseline ezetimibe use (yes/no).
Disease parameters included: CV risk category; the presence/absence of diabetes at baseline; and renal dysfunction at baseline (estimated glomerular filtration rate [eGFR]<60 mL/min/1.73 m^2) using the Chronic Kidney Disease Epidemiology Collaboration (CKD-EPI) equation as follows: eGFR=141×min(Scr/κ,1)^α×max(Scr/κ,1)^[…]^Age×1.018 [if female]×1.159 [if black]
Treatment Parameters included: Statin intensity at baseline (statin type and regimen); and statin intensity categories as defined in ACC/AHA Cholesterol Guidelines (Stone 2013) and patient's 10-year CV Risk Score (Goff 2013).
Baseline Lipid and Lipoprotein Parameter included: LDL-C (by tertile); HDL-C (by tertile, and tertile by gender); TG (by tertile, and tertile by gender); RLP-C (by tertile); TG ≥150 mg/dL and TG <150 mg/dL; TG ≥200 mg/dL and TG <200 mg/dL; TG ≥median, TG <median; combined highest tertile for TG and lowest tertile for HDL-C; gender-specific highest tertile for TG and lowest tertile for HDL-C; TG ≥200 mg/dL with HDL-C ≤35 mg/dL; hsCRP (≤3 mg/L and >3 mg/L) and by gender; hsCRP (≤2 mg/L and >2 mg/L) and by gender; Apo B (by tertile); non-HDL-C (by tertile); baseline hemoglobin A1c (Hb1c) value (<6.5%, ≥6.5%); baseline PAD; and baseline TG levels ≥150 mg/dL with high-density lipoprotein cholesterol (HDL-C) levels ≤40 mg/dL for males and ≤50 mg/dL for females.
A Cox proportional hazard (PH) model as mentioned above but additionally with baseline TG as a covariate were fitted to the data at each interim. Diagnostic plots for the PH assumption were evaluated. The consistency of the treatment effects in subgroups was assessed for the primary and key secondary efficacy endpoints. For each subgroup variable, a Cox PH model with terms for treatment, stratification factors (with the exception of those subgroup variables related to the stratification factors, i.e., CV risk category), subgroup, and treatment-by-subgroup interaction were performed. The main treatment effect was tested with this model. P-values for testing the interaction terms <0.15 were considered significant. Results were presented in a Forest plot.
Subgroup analyses of the primary and key secondary endpoints were performed as described for the primary endpoint. For each subgroup, Kaplan-Meier estimates, the log-rank test stratified by stratification factors used at randomization (except where the subgroup was a stratification factor), and HRs and CIs from the Cox proportional hazards model as specified for the primary efficacy endpoint, were summarized by treatment group. All subgroup analyses were conducted for the ITT, mITT and PP populations.
Of note regarding the following subgroup analyses, per study design, subgroup analyses are underpowered to detect statistically significant results within each individual subgroup, particularly when a subgroup represents less than 50% of the enrolled population, and when a subgroup has low event rates. […]

[1] = Baseline TG <150 mg/dL or HDL-C >40 mg/dL (Males) or >50 mg/dL (Females)
[2] = Baseline TG ≥150 mg/dL and HDL-C ≤40 mg/dL (Males) or ≤50 mg/dL (Females)
[3] = Females, Baseline hsCRP >2 mg/L
[4] = Females, Baseline hsCRP ≤2 mg/L
[5] = Females, HDL-C Highest Tertile (>48 to ≤96.5 mg/dL)
[6] = Females, HDL-C Lowest Tertile (≥21 to ≤41 mg/dL)
[7] = Females, HDL-C Middle Tertile (>41 to ≤48 mg/dL)
[8] = Females, Highest tertile for baseline TG and lowest tertile for baseline HDL-C (No)
[9] = Females, Highest tertile for baseline TG and lowest tertile for baseline HDL-C (Yes)
[10] = Females, TG Highest Tertile (>241.5 to ≤1401 mg/dL)
[11] = Females, TG Lowest Tertile (≥92.5 to ≤186 mg/dL)
[12] = Females, TG Middle Tertile (>186 to ≤241.5 mg/dL)
[13] = Males, HDL-C Highest Tertile (>42 to ≤107.5 mg/dL)
[14] = Males, HDL-C Lowest Tertile (≥17 to ≤35.5 mg/dL)
[15] = Males, HDL-C Middle Tertile (>35.5 to ≤42 mg/dL)
[16] = Males, Highest tertile for baseline TG and lowest tertile for baseline HDL-C (No)
[17] = Males, Highest tertile for baseline TG and lowest tertile for baseline HDL-C (Yes)
[18] = Males, TG Highest Tertile (>253.5 to ≤830 mg/dL)
[19] = Males, TG Lowest Tertile (≥81.25 to ≤191.5 mg/dL)
[20] = Males, TG Middle Tertile (>191.5 to ≤253.5 mg/dL)
[21] = Overall (Males and Females), Baseline hsCRP >2 mg/L
[22] = Overall (Males and Females), Baseline hsCRP ≤2 mg/L
[23] = Overall (Males and Females), HDL-C Highest Tertile (>43.5 to ≤107.5 mg/dL)
[24] = Overall (Males and Females), HDL-C Lowest Tertile (≥17 to ≤36.5 mg/dL)
[25] = Overall (Males and Females), HDL-C Middle Tertile (>36.5 to ≤43.5 mg/dL)
[26] = Overall (Males and Females), Highest tertile for baseline TG and lowest tertile for baseline HDL-C (No)
[27] = Overall (Males and Females), Highest tertile for baseline TG and lowest tertile for baseline HDL-C (Yes)
[28] = Overall (Males and Females), TG Highest Tertile (>250 to ≤1401 mg/dL)

## CC/C=C\C/C=C\C/C=C\C/C=C\C/C=C\CCCC(=O)OCC [AMR101, eicosapentaenoic acid ethyl ester]
<65 years subgroup
  Key secondary endpoint event, patients: 9.0%
  Key secondary endpoint, HR: 0.652
  Primary endpoint event, patients: 14.4%
  Primary endpoint, HR: 0.650
Baseline HbA1c <6.5%
  Primary endpoint, patients with event (%): 16.5%
  Time to primary endpoint, HR (95% CI) AMR101/Placebo: 0.793
Baseline HbA1c ≥6.5%
  Time to primary endpoint, HR (95% CI) AMR101/Placebo: 0.701
[1]
  Primary endpoint, patients with event (%): 18.2%
  Time to primary endpoint, HR (95% CI) AMR101/Placebo: 0.842
[2]
  Primary endpoint, patients with event (%): 16.5%
  Time to primary endpoint, HR (95% CI) AMR101/Placebo: 0.691
[3]
  Primary endpoint, patients with event (%): (15.0) %
  Primary endpoint, patients with event n/N: 113/752
  Time to primary endpoint, HR (95% CI) AMR101/Placebo: 0.930
[4]
  Primary endpoint, patients with event (%): (10.0) %
  Primary endpoint, patients with event n/N: 41/409
  Time to primary endpoint, HR (95% CI) AMR101/Placebo: 0.621
[5]
  Primary endpoint, patients with event (%): (13.9) %
  Primary endpoint, patients with event n/N: 50/359
  Time to primary endpoint, HR (95% CI) AMR101/Placebo: 0.936
[6]
  Primary endpoint, patients with event (%): (16.7) %
  Primary endpoint, patients with event n/N: 71/426
  Time to primary endpoint, HR (95% CI) AMR101/Placebo: 0.894
[7]
  Primary endpoint, patients with event (%): (8.8) %
  Primary endpoint, patients with event n/N: 33/374
  Time to primary endpoint, HR (95% CI) AMR101/Placebo: 0.609
[8]
  Primary endpoint, patients with event (%): (13.7) %
  Primary endpoint, patients with event n/N: 59/431
  Time to primary endpoint, HR (95% CI) AMR101/Placebo: 0.755
[9]
  Primary endpoint, patients with event (%): (15.7) %
  Primary endpoint, patients with event n/N: 29/185
  Time to primary endpoint, HR (95% CI) AMR101/Placebo: 0.934
[10]
  Primary endpoint, patients with event (%): (12.3) %
  Primary endpoint, patients with event n/N: 46/375
  Time to primary endpoint, HR (95% CI) AMR101/Placebo: 0.734
[11]
  Primary endpoint, patients with event n/N: 49/396
  Time to primary endpoint, HR (95% CI) AMR101/Placebo: 0.728
[12]
  Primary endpoint, patients with event (%): (15.1) %
  Primary endpoint, patients with event n/N: 59/390
  Time to primary endpoint, HR (95% CI) AMR101/Placebo: 1.077
Males, Baseline hsCRP >2 mg/L
  Primary endpoint, patients with event (%): (21.5) %
  Time to primary endpoint, HR (95% CI) AMR101/Placebo: 0.772
Males, Baseline hsCRP ≤2 mg/L
  Primary endpoint, patients with event (%): (16.4) %
  Time to primary endpoint, HR (95% CI) AMR101/Placebo: 0.691
[13]
  Primary endpoint, patients with event (%): (20.5) %
  Primary endpoint, patients with event n/N: 187/913
  Time to primary endpoint, HR (95% CI) AMR101/Placebo: 0.857
[14]
  Primary endpoint, patients with event (%): (19.0) %
  Time to primary endpoint, HR (95% CI) AMR101/Placebo: 0.652
[15]
  Primary endpoint, patients with event (%): (16.9) %
  Primary endpoint, patients with event n/N: 160/945
  Time to primary endpoint, HR (95% CI) AMR101/Placebo: 0.717
[16]
  Primary endpoint, patients with event (%): (18.1) %
  Time to primary endpoint, HR (95% CI) AMR101/Placebo: 0.693
[17]
  Primary endpoint, patients with event (%): (19.9) %
  Primary endpoint, patients with event n/N: 90/453
  Time to primary endpoint, HR (95% CI) AMR101/Placebo: 0.632
[18]
  Primary endpoint, patients with event (%): (18.9) %
  Primary endpoint, patients with event n/N: 181/960
  Time to primary endpoint, HR (95% CI) AMR101/Placebo: 0.671
[19]
  Primary endpoint, patients with event (%): (19.0) %
  Primary endpoint, patients with event n/N: 185/972
[20]
  Primary endpoint, patients with event (%): (18.6) %
  Primary endpoint, patients with event n/N: 185/993
  Time to primary endpoint, HR (95% CI) AMR101/Placebo: 0.741
[21]
  Primary endpoint, patients with event (%): (19.2) %
  Time to primary endpoint, HR (95% CI) AMR101/Placebo: 0.813
[22]
  Primary endpoint, patients with event (%): (15.0) %
  Time to primary endpoint, HR (95% CI) AMR101/Placebo: 0.680
[23]
  Primary endpoint, patients with event (%): 15.9%
  Time to primary endpoint, HR (95% CI) AMR101/Placebo: 0.812
[24]
  Primary endpoint, patients with event (%): 18.1%
  Time to primary endpoint, HR (95% CI) AMR101/Placebo: 0.667
[25]
  Primary endpoint, patients with event (%): 17.6%
  Time to primary endpoint, HR (95% CI) AMR101/Placebo: 0.800
[26]
  Primary endpoint, patients with event (%): (16.3) %
  Time to primary endpoint, HR (95% CI) AMR101/Placebo: 0.679
[27]
  Primary endpoint, patients with event (%): (19.1) %
  Primary endpoint, patients with event n/N: 118/619
  Time to primary endpoint, HR (95% CI) AMR101/Placebo: 0.670
[28]
  Primary endpoint, patients with event (%): 16.9%
  Time to primary endpoint, HR (95% CI) AMR101/Placebo: 0.675
